{
  "source": "patent US12178902B1",
  "about": "“Methods and compositions for fluid drainage by Piezo ion channel activation” (UNIVERSITY OF SOUTHERN CALIFORNIA, priority 2020, dated 2024)",
  "key": {"[1]": {"biological_target": "T1, Piezo1 (Mus musculus, UniProt E2JF22)", "T1 construct": "from tissue; host or cells: Prox1-EGFP mice (pregnant females at E18.5 and pups at P0); lymphatic vessels of mesentery (jejunum, colon) and tail skin", "T1 sequence (E2JF22 whole entry)": "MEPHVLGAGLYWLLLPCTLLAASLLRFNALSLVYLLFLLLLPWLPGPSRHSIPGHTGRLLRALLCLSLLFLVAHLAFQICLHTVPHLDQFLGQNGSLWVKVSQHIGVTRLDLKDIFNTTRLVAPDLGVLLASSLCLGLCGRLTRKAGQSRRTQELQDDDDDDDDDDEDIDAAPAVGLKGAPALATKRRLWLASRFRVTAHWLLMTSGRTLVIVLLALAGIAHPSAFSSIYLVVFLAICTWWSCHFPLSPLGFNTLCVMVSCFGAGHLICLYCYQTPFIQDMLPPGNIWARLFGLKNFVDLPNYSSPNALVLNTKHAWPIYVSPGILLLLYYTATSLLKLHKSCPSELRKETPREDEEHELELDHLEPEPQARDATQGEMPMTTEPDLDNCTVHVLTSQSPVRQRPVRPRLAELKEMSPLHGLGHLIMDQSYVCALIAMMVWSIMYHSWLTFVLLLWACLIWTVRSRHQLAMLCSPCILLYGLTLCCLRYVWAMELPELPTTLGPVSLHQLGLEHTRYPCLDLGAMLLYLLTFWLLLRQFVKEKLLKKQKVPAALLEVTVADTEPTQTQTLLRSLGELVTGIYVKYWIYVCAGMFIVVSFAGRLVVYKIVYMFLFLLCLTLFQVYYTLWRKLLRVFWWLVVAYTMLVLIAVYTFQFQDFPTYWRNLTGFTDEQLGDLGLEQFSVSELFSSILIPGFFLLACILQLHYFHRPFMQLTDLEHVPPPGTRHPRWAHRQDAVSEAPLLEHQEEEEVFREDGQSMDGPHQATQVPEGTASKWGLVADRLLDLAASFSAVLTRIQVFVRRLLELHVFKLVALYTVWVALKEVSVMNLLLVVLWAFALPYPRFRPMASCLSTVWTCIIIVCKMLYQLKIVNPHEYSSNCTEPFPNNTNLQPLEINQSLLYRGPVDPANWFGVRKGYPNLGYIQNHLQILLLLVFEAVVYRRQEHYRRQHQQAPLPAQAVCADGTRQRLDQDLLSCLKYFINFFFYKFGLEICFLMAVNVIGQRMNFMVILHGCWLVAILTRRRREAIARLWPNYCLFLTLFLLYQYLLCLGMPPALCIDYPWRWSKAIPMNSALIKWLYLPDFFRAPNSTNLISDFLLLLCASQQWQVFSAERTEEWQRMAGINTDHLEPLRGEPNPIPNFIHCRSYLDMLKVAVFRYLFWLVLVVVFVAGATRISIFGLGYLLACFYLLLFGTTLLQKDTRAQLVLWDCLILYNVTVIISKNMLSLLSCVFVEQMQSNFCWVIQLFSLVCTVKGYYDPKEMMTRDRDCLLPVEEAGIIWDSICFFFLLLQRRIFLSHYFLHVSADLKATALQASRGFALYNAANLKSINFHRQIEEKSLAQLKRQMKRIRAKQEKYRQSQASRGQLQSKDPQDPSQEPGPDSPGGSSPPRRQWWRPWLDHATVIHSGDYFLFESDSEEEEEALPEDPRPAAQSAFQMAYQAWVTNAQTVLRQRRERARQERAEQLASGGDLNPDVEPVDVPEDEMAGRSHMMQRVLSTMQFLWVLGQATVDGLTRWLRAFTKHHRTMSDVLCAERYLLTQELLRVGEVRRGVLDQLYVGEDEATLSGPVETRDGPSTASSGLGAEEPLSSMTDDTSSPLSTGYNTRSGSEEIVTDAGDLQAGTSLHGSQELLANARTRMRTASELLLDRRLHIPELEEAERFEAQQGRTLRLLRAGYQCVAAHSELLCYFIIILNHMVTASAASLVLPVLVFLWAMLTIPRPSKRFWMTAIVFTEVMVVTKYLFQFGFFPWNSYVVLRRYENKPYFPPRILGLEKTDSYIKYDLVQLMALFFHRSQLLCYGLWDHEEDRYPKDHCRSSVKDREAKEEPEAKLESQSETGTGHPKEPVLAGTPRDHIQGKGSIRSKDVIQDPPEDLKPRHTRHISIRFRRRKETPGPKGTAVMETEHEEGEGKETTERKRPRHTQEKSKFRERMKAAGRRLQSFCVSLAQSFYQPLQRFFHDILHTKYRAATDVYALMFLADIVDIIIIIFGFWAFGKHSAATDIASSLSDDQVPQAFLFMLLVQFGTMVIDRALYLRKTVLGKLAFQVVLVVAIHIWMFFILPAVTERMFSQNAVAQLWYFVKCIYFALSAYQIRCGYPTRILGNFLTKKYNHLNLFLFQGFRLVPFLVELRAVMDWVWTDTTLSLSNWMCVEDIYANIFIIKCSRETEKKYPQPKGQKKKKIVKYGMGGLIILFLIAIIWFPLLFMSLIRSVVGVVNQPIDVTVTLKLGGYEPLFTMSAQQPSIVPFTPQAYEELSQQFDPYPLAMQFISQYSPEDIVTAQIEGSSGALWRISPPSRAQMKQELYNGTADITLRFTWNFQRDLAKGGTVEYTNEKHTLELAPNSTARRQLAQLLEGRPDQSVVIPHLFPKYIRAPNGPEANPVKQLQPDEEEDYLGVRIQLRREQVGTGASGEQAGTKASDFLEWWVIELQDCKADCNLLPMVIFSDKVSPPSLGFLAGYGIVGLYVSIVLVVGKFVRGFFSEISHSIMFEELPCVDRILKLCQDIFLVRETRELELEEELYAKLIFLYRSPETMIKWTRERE", "experiment": "Lymphatic valve formation in Prox1-EGFP mice after perinatal Yoda1 administration", "format": "in vivo", "details": "Yoda1 70 μg/kg intraperitoneal at E18.5 and P0, evaluated at P1, mesenteries of the jejunum and the colon, tail skin", "source_text": "All mouse works have been approved by the Institutional Animal Care and Use Committee, University of Southern California (PI: YK Hong). Sources of the mice are: Prox1-EGFP (Tg(Prox1-EGFP)KY221Gsat, Mutant Mouse Resource and Research Centers) (35), Prox1-tdTomato (Tg(Prox1-tdTomato)TA76Gsat/Mmucd, Mutant Mouse Resource and Research Centers) (28), Prox1-CreER^T2 (a kind gift from Dr. Taija Makinen, Uppsala University, Sweden) (17), Piezo1^fl/fl (Piezo1^tm2.1Apat/J. Jackson Laboratory) (29). Mice were maintained in mixed outbred backgrounds. […]\nPregnant Prox1-EGFP females at E18.5 were intraperitoneal injected with vehicle or Yoda1 (70 μg/kg). […] Equivalent anatomic locations were selected for capturing images in the vehicle and Yoda1-treated groups, and their lymphatic valve formation was investigated and quantified (Supplemental FIG. 5).\nAs Piezo1 was originally identified as a mechanically activated cation channel (21-25), we next asked whether another physical force, such as cell stretching, could stimulate Piezo1 and induce the molecular signature of lymphatic valves. […] Prox1-EGFP mice were perinatally administrated at E18.5 and P0 with a chemical agonist of Piezo1, Yoda1 (30), and lymphatic valve formation in the small intestine, colon, and skin was evaluated at P1. […]"}, "[2]": {"system": "cultured LECs", "experiment": "Lymphatic valve gene expression in Yoda1-treated cultured LECs in the absence of OSS", "format": "cell-based, human", "method": "As Piezo1 was originally identified as a mechanically activated cation channel (21-25), we next asked whether another physical force, such as cell stretching, could stimulate Piezo1 and induce the molecular signature of lymphatic valves. To address this question, primary LECs were subjected to cyclic cell stretching (112%, 12 Hz) for 4, 8, and 24 hours in the absence of OSS, and the expression of the lymphatic valve genes were investigated. […] In addition, we investigated whether chemical activation of Piezo1 promotes lymphatic valve formation in animals. Prox1-EGFP mice were perinatally administrated at E18.5 and P0 with a chemical agonist of Piezo1, Yoda1 (30), and lymphatic valve formation in the small intestine, colon, and skin was evaluated at P1. […] We then asked whether Yoda1 could activate cultured LECs to upregulate lymphatic valve genes in the absence of OSS."}},
  "note": "Entries after “also recorded” stand apart in the source; their conditions may differ.",
  "data": [
    {"smiles": "Clc1cccc(Cl)c1CSc1nnc(-c2cnccn2)s1", "note": "[Yoda1, 2-[(2,6-dichlorophenyl)methylsulfanyl]-5-pyrazin-2-yl-1,3,4-thiadiazole]", "values": [
      {"measurement": "lymphatic valve formation", "setting": "[1]", "result": "significantly expedited; also recorded: accelerated lymphatic valve formation"},
      {"measurement": "FOXC2 expression", "setting": "[2]", "result": "rather downregulated"},
      {"measurement": "CX37 expression", "setting": "[2]; Piezo1-dependent", "result": "upregulates"},
      {"measurement": "GATA2 expression", "setting": "[2]; Piezo1-dependent", "result": "upregulates"},
      {"measurement": "ITGA9 expression", "setting": "[2]; Piezo1-dependent", "result": "upregulates"},
      {"measurement": "LAMA5 expression", "setting": "[2]; Piezo1-dependent", "result": "upregulates"}
    ]}
  ]
}
